From patent publication US20250041282A1, “METHOD FOR TREATING INFLAMMATORY PULMONARY DISEASE” (FU JEN CATHOLIC UNIVERSITY, priority 2021, published 2025)

Assays:
RAW264.7 macrophages [1] = experiment: Analysis of cell viability (MTT assay); type: cell-based, mouse; conditions: FIG. 1B
Procedure: RAW264.7 cells (mouse monocyte/macrophage-like cells) were purchased from the Bioresource Collection and Research Center (Hsinchu, Taiwan). The cells were maintained in DMEM (HyClone, Logan, UT, USA) containing 10% fetal bovine serum (HyClone), MEM nonessential amino acids (HyClone), […] sodium pyruvate (HyClone), and penicillin/streptomycin (HyClone). The cells were incubated at 37° C. in a humidified atmosphere of 5% CO2 and 95% air. RAW264.7 macrophages were pretreated with FJU-Cs (0 to 10 μM) as indicated for 30 min and were then stimulated with/without LPS (100 ng/ml) for 24 h. The remaining cells were evaluated by a 3-(4,5-dimethylthiazol-2-yl)-2,5-diphenyl tetrazolium bromide (MTT) assay. Cells containing formazan crystals were dissolved in DMSO (Merck, Darmstadt, Germany) and quantified at a wavelength of 595 nm using a spectrophotometer (BioTek Instruments, Inc. Winooski, Vermont, USA). Each experiment was repeated at least 3 times.

RAW264.7 macrophages [2] = experiment: Cytokine protein array analysis of conditioned culture media; type: cell-based, mouse
Procedure: Cytokine array analysis was performed according to the procedure recommended by the Raybio mouse cytokine antibody array 4 (RayBiotech, Inc. Peachtree Corners, GA). This cytokine protein array was used to simultaneously determine the relative levels of 40 different cytokines, chemokines, and acute-phase proteins in a single sample. One hundred microliters of cell culture medium was used for each sample. The signal intensity in the membrane of the cytokine protein array was measured by using ImageJ software and is presented as a heat map drawn by using MultiExperiment Viewer (MeV V.4.9.0) software.
To distinguish the effect of various FJU-Cs on LPS-induced inflammation, the cell culture media of RAW264.7 macrophages treated with various conditions were harvested and analyzed by using a mouse cytokine antibody array (left panel of FIG. 3). The signal intensities on the array membranes were quantified by densitometry, and the changes in different cytokines are represented as a heat map (right panel of FIG. 3).

C=CCC1CC(Sc2ccccc2)=CC(=O)N1C(=O)C=C (stereo not shown) [FJU-C28]
cytotoxicity (RAW264.7 macrophages [1]; compared with 10 μM FJU-C4, 24 hours): less cytotoxicity than 10 μM FJU-C4
LPS-induced cell death (RAW264.7 macrophages [1]; pretreated 30 min, then LPS 24 hours): protected RAW264.7 macrophages from LPS-induced cell death
LPS-induced secretion of TIMP1, IL-6 and IL-10 (array, in words) (RAW264.7 macrophages [2]; FIG. 3): dramatically suppressed
LPS-induced secretion/expression of RANTES (array, in words) (RAW264.7 macrophages [2]; FIG. 3): dramatically suppressed
Protein array, fold change (mean ± S.E.): BLC (RAW264.7 macrophages [2]; LPS + compound / control): 1.3 ± 0.1 fold change
Protein array, fold change (mean ± S.E.): CD30 L (RAW264.7 macrophages [2]; LPS + compound / control): 1.6 ± 0.9 fold change
Protein array, fold change (mean ± S.E.): Eotaxin (RAW264.7 macrophages [2]; LPS + compound / control): 10.3 ± 6.1 fold change
Protein array, fold change (mean ± S.E.): Eotaxin-2 (RAW264.7 macrophages [2]; LPS + compound / control): 2.0 ± 1.0 fold change
Protein array, fold change (mean ± S.E.): Fas ligand (RAW264.7 macrophages [2]; LPS + compound / control): 1.1 ± 0.8 fold change
Protein array, fold change (mean ± S.E.): Fractalkine (RAW264.7 macrophages [2]; LPS + compound / control): 1.0 ± 0.6 fold change
Protein array, fold change (mean ± S.E.): GCSF (RAW264.7 macrophages [2]; LPS + compound / control): 20.1 ± 1.9 fold change
Protein array, fold change (mean ± S.E.): GM-CSF (RAW264.7 macrophages [2]; LPS + compound / control): 1.5 ± 0.4 fold change
Protein array, fold change (mean ± S.E.): I-TAC (RAW264.7 macrophages [2]; LPS + compound / control): 0.8 ± 0.3 fold change
Protein array, fold change (mean ± S.E.): IL-1B (RAW264.7 macrophages [2]; LPS + compound / control): 2.6 ± 0.0 fold change
Protein array, fold change (mean ± S.E.): IL-1α (RAW264.7 macrophages [2]; LPS + compound / control): 1.1 ± 0.1 fold change
Protein array, fold change (mean ± S.E.): IL-2 (RAW264.7 macrophages [2]; LPS + compound / control): 2.1 ± 0.2 fold change
Protein array, fold change (mean ± S.E.): IL-3 (RAW264.7 macrophages [2]; LPS + compound / control): 1.1 ± 0.2 fold change
Protein array, fold change (mean ± S.E.): IL-4 (RAW264.7 macrophages [2]; LPS + compound / control): 1.2 ± 0.2 fold change
Protein array, fold change (mean ± S.E.): IL-6 (RAW264.7 macrophages [2]; LPS + compound / control): 1.1 ± 0.2 fold change
Protein array, fold change (mean ± S.E.): IL-9 (RAW264.7 macrophages [2]; LPS + compound / control): 0.9 ± 0.3 fold change
Protein array, fold change (mean ± S.E.): IL-10 (RAW264.7 macrophages [2]; LPS + compound / control): 0.3 ± 0.2 fold change
Protein array, fold change (mean ± S.E.): IL-12 p70 (RAW264.7 macrophages [2]; LPS + compound / control): 0.8 ± 0.2 fold change
Protein array, fold change (mean ± S.E.): IL-12 p-40 p70 (RAW264.7 macrophages [2]; LPS + compound / control): 0.9 ± 0.1 fold change
Protein array, fold change (mean ± S.E.): IL-13 (RAW264.7 macrophages [2]; LPS + compound / control): 0.6 ± 0.0 fold change
Protein array, fold change (mean ± S.E.): IL-17 (RAW264.7 macrophages [2]; LPS + compound / control): 7.8 ± 5.3 fold change
Protein array, fold change (mean ± S.E.): INF gamma (RAW264.7 macrophages [2]; LPS + compound / control): 1.4 ± 0.2 fold change
Protein array, fold change (mean ± S.E.): KC (RAW264.7 macrophages [2]; LPS + compound / control): 0.8 ± 0.4 fold change
Protein array, fold change (mean ± S.E.): LIX (RAW264.7 macrophages [2]; LPS + compound / control): 1.0 ± 0.2 fold change
Protein array, fold change (mean ± S.E.): Leptin (RAW264.7 macrophages [2]; LPS + compound / control): 3.2 ± 0.8 fold change
Protein array, fold change (mean ± S.E.): Lymphotactin (RAW264.7 macrophages [2]; LPS + compound / control): 0.7 ± 0.2 fold change
Protein array, fold change (mean ± S.E.): MCP-1 (RAW264.7 macrophages [2]; LPS + compound / control): 1.7 ± 0.2 fold change
Protein array, fold change (mean ± S.E.): MCSF (RAW264.7 macrophages [2]; LPS + compound / control): 0.8 ± 0.1 fold change
Protein array, fold change (mean ± S.E.): MIP-1α (RAW264.7 macrophages [2]; LPS + compound / control): 1.0 ± 0.2 fold change
Protein array, fold change (mean ± S.E.): MIP-1γ (RAW264.7 macrophages [2]; LPS + compound / control): 1.2 ± 0.2 fold change
Protein array, fold change (mean ± S.E.): RANTES (RAW264.7 macrophages [2]; LPS + compound / control): 1.3 ± 0.2 fold change
Protein array, fold change (mean ± S.E.): SDF1 (RAW264.7 macrophages [2]; LPS + compound / control): 0.9 ± 0.2 fold change
Protein array, fold change (mean ± S.E.): STNFRI (RAW264.7 macrophages [2]; LPS + compound / control): 1.0 ± 0.0 fold change
Protein array, fold change (mean ± S.E.): STNFRII (RAW264.7 macrophages [2]; LPS + compound / control): 2.1 ± 0.1 fold change
Protein array, fold change (mean ± S.E.): TCA-3 (RAW264.7 macrophages [2]; LPS + compound / control): 0.9 ± 0.1 fold change
Protein array, fold change (mean ± S.E.): TECK (RAW264.7 macrophages [2]; LPS + compound / control): 0.5 ± 0.3 fold change
Protein array, fold change (mean ± S.E.): TIMP-1 (RAW264.7 macrophages [2]; LPS + compound / control): 1.1 ± 0.1 fold change
Protein array, fold change (mean ± S.E.): TIMP-2 (RAW264.7 macrophages [2]; LPS + compound / control): 0.0 ± 0.0 fold change
Protein array, fold change (mean ± S.E.): TNFα (RAW264.7 macrophages [2]; LPS + compound / control): 21.0 ± 0.8 fold change
